Patent US9409892B2, “4-hydroxy-isoquinoline compounds as HIF hydroxylase inhibitors” (FIBROGEN, INC., priority 2012, dated 2016)

Legend:
PHD1 (EGLN2) = PHD1 (EGLN2) (Homo sapiens (Human), UniProt Q96KS0); experiment: HIF-PH assay (14CO2 capture), PHD1 enzyme inhibition; type: biochemical; conditions: for IC50: individual measurement, read-out: IC50 (μM) PHD1
Excerpt: (§1) Ketoglutaric acid α-[1-^14C]-sodium salt, alpha-ketoglutaric acid sodium salt, and HPLC purified peptide may be obtained from commercial sources, e.g., Perkin-Elmer (Wellesley Mass.), Sigma-Aldrich, and SynPep Corp. (Dublin Calif.), respectively. Peptides for use in the assay may be fragments of HIFα as described above or as disclosed in International Publication WO 2005/118836, incorporated by reference herein. HIF-pH, e.g., PHD1 (EGLN2) or PHD2 (EGLN1), can be expressed in, e.g., insect Hi5 cells, and partially purified, e.g., through a SP ion exchange chromatography column. Enzyme activity is determined by capturing ^14CO2 using an assay described by Kivirikko and Myllyla (1982, Methods Enzymol. 82:245-304). Assay reactions contain 50 mM HEPES (pH 7.4), 100 μM α-ketoglutaric acid sodium salt, 0.30 mCi/mL ketoglutaric acid α-[1-^14C]-sodium salt, 40 μM FeSO4, 1 mM ascorbate, 1541.8 units/mL Catalase, with or without 50 μM peptide substrate and various concentrations of compound of the invention. Reactions are initiated by addition of HIF-PH enzyme.
(§2) The peptide-dependent percent turnover is calculated by subtracting percent turnover in the absence of peptide from percent turnover in the presence of substrate peptide. Percent inhibition and IC50 are calculated using peptide-dependent percent turnover at given inhibitor concentrations. Calculation of IC50 values for each inhibitor is conducted using GraFit software (Erithacus Software Ltd., Surrey UK).
(§3) The PHD2/PHD1 is the ratio of the IC50 of the compound for each enzyme.

PHD2 (EGLN1) = PHD2 (EGLN1) (Homo sapiens (Human), UniProt Q9GZT9); experiment: HIF-PH assay (14CO2 capture), PHD2 enzyme inhibition; type: biochemical; conditions: Table 1; individual measurement; read-out: IC50 (μM) PHD2
Sequence of PHD2 (EGLN1) (Q9GZT9 whole entry): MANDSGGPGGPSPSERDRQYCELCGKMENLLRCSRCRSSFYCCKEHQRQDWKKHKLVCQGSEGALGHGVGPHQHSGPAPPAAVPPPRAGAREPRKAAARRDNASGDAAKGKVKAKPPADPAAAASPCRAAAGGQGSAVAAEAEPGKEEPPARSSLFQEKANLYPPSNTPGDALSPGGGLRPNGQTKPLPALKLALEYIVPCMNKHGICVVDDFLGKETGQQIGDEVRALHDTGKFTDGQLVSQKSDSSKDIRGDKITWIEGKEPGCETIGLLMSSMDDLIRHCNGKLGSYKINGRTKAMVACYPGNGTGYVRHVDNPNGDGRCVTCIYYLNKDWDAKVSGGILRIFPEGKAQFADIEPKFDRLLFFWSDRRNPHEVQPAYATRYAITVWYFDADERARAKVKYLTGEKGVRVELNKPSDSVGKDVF
Excerpt: as §1, §2, §3

[1] = Table 1, ratio of the IC50 of the compound for each enzyme

Sequence of PHD1 (EGLN2) (Q96KS0 whole entry, the tested form may be a part): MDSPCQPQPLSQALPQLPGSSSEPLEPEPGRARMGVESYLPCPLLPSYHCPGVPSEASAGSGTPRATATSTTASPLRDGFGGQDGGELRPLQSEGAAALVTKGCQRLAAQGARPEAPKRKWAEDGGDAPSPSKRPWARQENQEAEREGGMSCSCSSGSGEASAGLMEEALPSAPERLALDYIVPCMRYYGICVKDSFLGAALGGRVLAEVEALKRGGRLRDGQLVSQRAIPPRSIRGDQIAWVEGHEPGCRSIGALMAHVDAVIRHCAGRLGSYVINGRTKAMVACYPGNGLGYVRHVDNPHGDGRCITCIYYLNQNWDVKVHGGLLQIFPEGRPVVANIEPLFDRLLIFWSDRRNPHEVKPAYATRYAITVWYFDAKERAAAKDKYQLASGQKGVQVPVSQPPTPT

IC50 (PHD1 (EGLN2); Table 1) [µM] | PHD2/PHD1 (PHD1 (EGLN2); [1]) | IC50 (PHD2 (EGLN1)) [µM] | PHD2/PHD1 (PHD1 (EGLN2); Table 2 comparative data, IC50 PHD2/IC50 PHD1) | SMILES
3.39 | 14 | 47.9 |  | CCCC(CNC(=O)c1nc(C#N)c2cc(Oc3ccccc3)ccc2c1O)C(=O)O (stereo not shown) [Compound 17, 2-{[(1-Cyano-4-hydroxy-7-phenoxy-isoquinoline-3-carbonyl)-amino]-methyl}-pentanoic acid]
4.43 | 7 | 29.9 |  | CCCC(CCC)(CNC(=O)c1nc(C#N)c2cc(Oc3ccccc3)ccc2c1O)C(=O)O [Compound 18, 2-{[(1-Cyano-4-hydroxy-7-phenoxy-isoquinoline-3-carbonyl)-amino]-methyl}-2-propyl-pentanoic acid]
1.73 | 13 | 22.8 |  | N#Cc1nc(C(=O)NCC2(C(=O)O)CCCC2)c(O)c2ccc(Oc3ccccc3)cc12 [Compound 19, 1-{[(1-Cyano-4-hydroxy-7-phenoxy-isoquinoline-3-carbonyl)-amino]-methyl}-cyclopentanecarboxylic acid]
0.35 | 15 | 5.22 |  | COc1ccc(Oc2ccc3c(O)c(C(=O)NCC(C)(C)C(=O)O)nc(C#N)c3c2)cc1 [Compound 20, 3{-[1-Cyano-4-hydroxy-7-(4-methoxy-phenoxy)-isoquinoline-3-carbonyl]-amino}-2,2-dimethyl-propionic acid]
0.24 | 39 | 9.4 |  | COc1ccc(Oc2ccc3c(O)c(C(=O)NC(C)(C)CC(=O)O)nc(C#N)c3c2)cc1 [Compound 21, 3{-[1-Cyano-4-hydroxy-7-(4-methoxy-phenoxy)-isoquinoline-3-carbonyl]-amino}-3-methyl-butyric acid]
0.93 | 16 | 15.1 |  | CC(C)(CNC(=O)c1nc(C#N)c2cc(Oc3c(F)cccc3F)ccc2c1O)C(=O)O [Compound 22, 3-{[1-Cyano-7-(2,6-difluoro-phenoxy)-4-hydroxy-isoquinoline-3-carbonyl]-amino}-2,2-dimethyl-propionic acid]
2.77 | 5 | 12.7 |  | CC(C)(CNC(=O)c1ncc2cc(Oc3ccc(Cl)c(F)c3)ccc2c1O)C(=O)O [Compound 23, 3-{[7-(4-Chloro-3-fluoro-phenoxy)-4-hydroxy-isoquinoline-3-carbonyl]-amino}-2,2-dimethyl-propionic acid]
2.31 | 10 | 23.3 | 10 | O=C(O)CCNC(=O)c1ncc2cc(Oc3cccnc3)ccc2c1O [Compound 24, 3-{[4-Hydroxy-7-(pyridin-3-yloxy)-isoquinoline-3-carbonyl]-amino}-propionic acid]
4.57 | 10 | 44.6 |  | O=C(O)CCNC(=O)c1ncc2cc(Oc3ccccn3)ccc2c1O [Compound 25, 3-{[4-Hydroxy-7-(pyridin-2-yloxy)-isoquinoline-3-carbonyl]-amino}-propionic acid]
0.7 | 8 | 5.43 |  | N#Cc1nc(C(=O)NCC2(C(=O)O)CCC2)c(O)c2ccc(Oc3c(F)cccc3F)cc12 [Compound 26, 1-({[1-Cyano-7-(2,6-difluoro-phenoxy)-4-hydroxy-isoquinoline-3-carbonyl]-amino}-methyl)-cyclobutanecarboxylic acid]
3.27 | 10 | 33.3 |  | CC(C)(CNC(=O)c1nc(C#N)c2cc(Oc3cccnc3)ccc2c1O)C(=O)O [Compound 27, 3{-[1-Cyano-4-hydroxy-7-(pyridin-3-yloxy)-isoquinoline-3-carbonyl]-amino}-2,2-dimethyl-propionic acid]
1.3 | 5 | 7.15 |  | N#Cc1nc(C(=O)NCC2(C(=O)O)CCC2)c(O)c2ccc(Oc3cccnc3)cc12 [Compound 28, 1-({[1-Cyano-4-hydroxy-7-(pyridin-3-yloxy)-isoquinoline-3-carbonyl]-amino}-methyl)-cyclobutanecarboxylic acid]
3.76 | 9.9 | 37.3 |  | N#Cc1nc(C(=O)NCC2(C(=O)O)CCS(=O)(=O)CC2)c(O)c2ccc(Oc3ccccc3)cc12 [Compound 29, 4-{[(1-Cyano-4-hydroxy-7-phenoxy-isoquinoline-3-carbonyl)-amino]-methyl}-1,1-dioxo-hexahydro-1λ^6-thiopyran-4-carboxylic acid]
25.1 | 8 | 200 |  | N#Cc1nc(C(=O)NCC2(C(=O)O)CC[S+]([O-])CC2)c(O)c2ccc(Oc3ccccc3)cc12 (stereo not shown) [Compound 30, 4-{[(1-Cyano-4-hydroxy-7-phenoxy-isoquinoline-3-carbonyl)-amino]-methyl}-1-oxo-hexahydro-1λ^4-thiopyran-4-carboxylic acid]
0.53 | 8 | 4.2 |  | CC(C)(CNC(=O)c1nc(C#N)c2cc(Oc3cc(F)ccc3Cl)ccc2c1O)C(=O)O [Compound 31, 3-{[7-(2-Chloro-5-fluoro-phenoxy)-1-cyano-4-hydroxy-isoquinoline-3-carbonyl]-amino}-2,2-dimethyl-propionic acid]
2.55 | 12 | 30.9 |  | N#Cc1nc(C(=O)NCC(CC(=O)O)c2ccc(Cl)cc2)c(O)c2ccc(Oc3ccccc3)cc12 (stereo not shown) [Compound 34, 3-(4-Chloro-phenyl)-4-[(1-cyano-4-hydroxy-7-phenoxy-isoquinoline-3-carbonyl)-amino]-butyric acid]
0.23 | 12 | 2.83 |  | N#Cc1nc(C(=O)NC[C@@H](O)CC(=O)O)c(O)c2ccc(Oc3ccccc3)cc12 [Compound 35, (S)-4-(1-Cyano-4-hydroxy-7-phenoxyisoquinoline-3-carboxamido)-3-hydroxybutanoic acid]
5.93 | 10 | 56.6 |  | N#Cc1nc(C(=O)NCC2(CC(=O)O)CCCCC2)c(O)c2ccc(Oc3ccccc3)cc12 [Compound 36, (1-{[(1-Cyano-4-hydroxy-7-phenoxy-isoquinoline-3-carbonyl)-amino]-methyl}-cyclohexyl)-acetic acid]
6.67 | 24 | 159 |  | N#Cc1nc(C(=O)N[C@@H](CO)CC(=O)O)c(O)c2ccc(Oc3ccccc3)cc12 [Compound 37, (R)-3-(1-Cyano-4-hydroxy-7-phenoxyisoquinoline-3-carboxamido)-4-hydroxybutanoic acid]
0.24 | 20 | 4.79 |  | CC(C)(CNC(=O)c1nc(C#N)c2cc(Oc3ccccc3Cl)ccc2c1O)C(=O)O [Compound 38, 3-(7-(2-Chlorophenoxy)-1-cyano-4-hydroxyisoquinoline-3-carboxamido)-2,2-dimethylpropanoic acid]
0.18 | 11 | 1.97 |  | CC(C)(CNC(=O)c1nc(C#N)c2cc(Oc3cccc(Cl)c3)ccc2c1O)C(=O)O [Compound 39, 3-{[7-(3-Chloro-phenoxy)-1-cyano-4-hydroxy-isoquinoline-3-carbonyl]-amino}-2,2-dimethyl-propionic acid]
0.3 | 13 | 4.01 |  | CC(C)(CNC(=O)c1nc(C#N)c2cc(Oc3ccc(Cl)cc3)ccc2c1O)C(=O)O [Compound 40, 3-{[7-(4-Chloro-phenoxy)-1-cyano-4-hydroxy-isoquinoline-3-carbonyl]-amino}-2,2-dimethyl-propionic acid]
0.55 | 17 | 9.56 |  | CC(C)(CNC(=O)c1nc(C#N)c2cc(Oc3ccccc3F)ccc2c1O)C(=O)O [Compound 41, 3{-[1-Cyano-7-(2-fluoro-phenoxy)-4-hydroxy-isoquinoline-3-carbonyl]-amino}-2,2-dimethyl-propionic acid]
0.36 | 11 | 3.95 |  | CC(C)(CNC(=O)c1nc(C#N)c2cc(Oc3cccc(F)c3)ccc2c1O)C(=O)O [Compound 42, 3-(1-Cyano-7-(3-fluorophenoxy)-4-hydroxyisoquinoline-3-carboxamido)-2,2-dimethylpropanoic acid]
0.22 | 8 | 1.73 |  | CC(C)(CNC(=O)c1nc(C#N)c2cc(Oc3cccc4ccccc34)ccc2c1O)C(=O)O [Compound 43, 3-(1-Cyano-4-hydroxy-7-(naphthalen-1-yloxy)isoquinoline-3-carboxamido)-2,2-dimethylpropanoic acid]
0.28 | 14 | 3.9 |  | Cc1ccc(Oc2ccc3c(O)c(C(=O)NCC(C)(C)C(=O)O)nc(C#N)c3c2)cc1 [Compound 44, 3-[(1-Cyano-4-hydroxy-7-p-tolyloxy-isoquinoline-3-carbonyl)-amino]-2,2-dimethyl-propionic acid]
